According to patent publication US9623014B2 (Entasis Therapeutics Limited, priority 2012, dated 2017):

Assays:
Escherichia coli = assay: MIC, broth microdilution (CLSI); format: cell-based; conditions: compound alone
Description: (§1) Minimum Inhibitory Concentrations (MICs) were determined by the broth microdilution method in accordance with the Clinical and Laboratory Standards Institute (CLSI) guidelines. Clinical Laboratory Standards Institute: Methods for Dilution Antimicrobial Susceptability Tests for Bacteria That Grow Aerobically (8th Ed. (2009)) M07-A8. In brief, organism suspensions were adjusted to a 0.5 McFarland standard and further diluted to yield a final inoculum between 3×10^5 and 7×10^5 colony-forming units (CFU)/mL. Bacterial inocula were made in sterile, cation adjusted Mueller-Hinton Broth (Beckton Dickinson) for either Escherichia coli, Klebsiella pneumoniae, or Pseudomonas aeruginosa. Haemophilus influenzae bacterial inocula were made in sterile, cation adjusted Mueller-Hinton Broth (Beckton Dickinson) containing 0.5% yeast extract (Beckton Dickinson) plus 15 μg/ml Bovine Hematin (Sigma) and 15 μg/ml β-nicotinamide adenine dinucleotide (Sigma). Bacterial inocula were made in sterile, cation adjusted Mueller-Hinton Broth (Beckton Dickinson) for Staphylococcus aureus or sterile, cation adjusted Mueller-Hinton Broth containing 2.5% lysed horse blood (Hema Resource & Supply Inc.) for Streptococcus pneumoniae and Streptococcus pyogenes. An inoculum volume of 100 uL was added to wells (using a Tecan EVO robot) containing 2 uL of DMSO containing 2-fold serial dilutions of drug. […] All inoculated microdilution trays were incubated in ambient air at 35° C. for 18-24 hours. Following incubation, the lowest concentration of the drug that prevented visible growth as read at OD600 nm was recorded as the MIC. Performance of the assay was monitored by the use of laboratory quality-control strains and commercially available control compounds with defined MIC spectrums, in accordance with CLSI guidelines.

Haemophilus influenzae = assay: MIC, broth microdilution (CLSI); format: cell-based; conditions: compound alone
Description: as §1

Klebsiella pneumoniae = assay: MIC, broth microdilution (CLSI); format: cell-based; conditions: compound alone
Description: as §1

Pseudomonas aeruginosa = assay: MIC, broth microdilution (CLSI); format: cell-based; conditions: compound alone
Description: as §1

Streptococcus pneumoniae = assay: MIC, broth microdilution (CLSI); format: cell-based; conditions: compound alone
Description: as §1

Streptococcus pyogenes = assay: MIC, broth microdilution (CLSI); format: cell-based; conditions: compound alone
Description: as §1

S. aureus (MRSA) = assay: MIC, broth microdilution (CLSI); format: cell-based, Staphylococcus aureus; conditions: compound alone
Description: as §1

S. aureus (MSSA) = assay: MIC, broth microdilution (CLSI); format: cell-based, Staphylococcus aureus; conditions: compound alone
Description: as §1

[1] = test system: Klebsiella pneumoniae KPC2; assay: MIC alone against β-lactamase producing strain; format: cell-based; conditions: substance alone
Description: as §1

[2] = test system: Pseudomonas aeruginosa AmpC (first AmpC column); assay: MIC alone against β-lactamase producing strain; format: cell-based; conditions: substance alone, column 2
Description: as §1

[3] = test system: Pseudomonas aeruginosa AmpC (second AmpC column); assay: MIC alone against β-lactamase producing strain; format: cell-based; conditions: substance alone, column 4
Description: as §1

[4] = test system: Pseudomonas aeruginosa PER-1, OXA-10; assay: MIC alone against β-lactamase producing strain; format: cell-based; conditions: substance alone
Description: as §1

[5] = test system: Klebsiella pneumoniae KPC2; assay: Synergy with β-lactams (MIC of β-lactam at fixed inhibitor concentration); format: cell-based; conditions: MIC of ceftazidime + inhibitor at fixed 4 ug/ml
Description: (§2) Synergy with β-lactams was assessed against several organisms producing a variety of β-lactamases belonging to different classes. Bush & Jacoby, Updated Functional Classification of β-Lactamases, Antimicrobial Agents and Chemotherapy, 54:969-76 (2010). In the assays, growth inhibitory activity (MIC) was measured using either two-fold dilutions of the partner β-lactam at a fixed concentration of compounds of formula (I). Compounds were prepared in DMSO, and MIC determinations using the compound of formula (I)/β-lactam combinations were done according to the CLSI guidelines. Clinical Laboratory Standards Institute: Methods for Dilution Antimicrobial Susceptability Tests for Bacteria That Grow Aerobically (8th Ed. (2009)) M07-A8. Synergy was defined as a four-fold or more reduction in the MIC of the β-lactam in the presence of the compound of formula (I), compared to the β-lactam alone.

[6] = test system: Pseudomonas aeruginosa PER-1, OXA-10; assay: as above; format: cell-based; conditions: MIC of ceftazidime + inhibitor at fixed 4 ug/ml
Description: as §2

## CC1=C[C@@H](CO)N2C[C@@H]1N(OS(=O)(=O)[O-])C2=O.[Na+] [Example 16, (2S,5R)-2-(hydroxymethyl)-4-methyl-7-oxo-1,6-diazabicyclo[3.2.1]oct-3-en-6-yl hydrogen sulfate Sodium Salt]
Escherichia coli; Escherichia coli
  MIC: 100 mg/L
Haemophilus influenzae; Haemophilus influenzae, read-out: MIC H. influenzae
  MIC: 50 mg/L
Klebsiella pneumoniae; Klebsiella pneumoniae, read-out: MIC K. pneumon.
  MIC: 100 mg/L
Pseudomonas aeruginosa; Pseudomonas aeruginosa, read-out: MIC P. aeruginosa
  MIC: > 200 mg/L
Streptococcus pneumoniae; Streptococcus pneumoniae, read-out: MIC S. pneumon.
  MIC: 50 mg/L
Streptococcus pyogenes; Streptococcus pyogenes, read-out: MIC S. pyogenes
  MIC: 50 mg/L
S. aureus (MRSA); Staphylococcus aureus, MRSA
  MIC: > 200 mg/L
S. aureus (MSSA); Staphylococcus aureus, MSSA
  MIC: 100 mg/L
[1]; Klebsiella pneumoniae, KPC2
  MIC: 8 mg/L
[2]
  MIC: > 16 mg/L
[3]
  MIC: > 16 mg/L
[4]; Pseudomonas aeruginosa
  MIC: > 16 mg/L

## CC(=O)NCCC1=C[C@@H](C(N)=O)N2C[C@@H]1N(OS(=O)(=O)[O-])C2=O.[Na+] [Ex. 25, (2S,5R)-4-(2-acetamidoethyl)-2-carbamol-7-oxo-1,6-diazabicyclo[3.2.1]oct-3-en-6-yl sulfate sodium salt]
[5]
  MIC Klebsiella pneumoniae KPC2: >8 µM

## CC(C)C1=C[C@@H]2CN(C(=O)N2OS(=O)(=O)[O-])[C@@H]1C(N)=O.[Na+] [Example 11]
Escherichia coli
  MIC E. coli: >200 mg/L
Haemophilus influenzae
  MIC H. influenzae: >200 mg/L
Klebsiella pneumoniae
  MIC K. pneumon.: >200 mg/L
Pseudomonas aeruginosa
  MIC P. aeruginosa: >200 mg/L
Streptococcus pneumoniae
  MIC S. pneumon.: 25 mg/L
Streptococcus pyogenes
  MIC S. pyogenes: 25 mg/L
S. aureus (MRSA)
  MIC S. aureus (MRSA): >200 mg/L
S. aureus (MSSA)
  MIC S. aureus (MSSA): 100 mg/L
[1]
  MIC Klebsiella pneumoniae KPC2: >16 mg/L
[4]
  MIC Pseudomonas aeruginosa PER-1, OXA-10: >16 mg/L
[5]
  MIC Klebsiella pneumoniae KPC2: 1 µM
[6]
  MIC Pseudomonas aeruginosa PER-1, OXA-10: 16 µM
